The values that follow come from publication doi:10.1101/2024.12.20.629780v2 (bioRxiv, 2024).

Ends that are not written are not given here.

The first data set relates to PMA-differentiated human monocytes (THP-1). Briefly: MTT cytotoxicity assay. Format: cell-based. The following applies: Ala-scan.
For “FRWWAYKRALAATTIKIKRRK [L5A-Turingcin-46]”, the “Cytotoxicity in PMA-differentiated THP-1 cells relative to Turingcin-46” value is given as “reduced cytotoxicity”.
In the case of “FRWALYKRALAATTIKIKRRK [W4A-Turingcin-46]”, the “Cytotoxicity in PMA-differentiated THP-1 cells relative to Turingcin-46” value is reported as “reduced cytotoxicity”.
On to “FRWWLYKRALAATTIKIKRAK [R20A-Turingcin-46]”, for which the “Cytotoxicity in PMA-differentiated THP-1 cells relative to Turingcin-46” value was “reduced cytotoxicity”.
On the same count and under the same terms, in the case of “FRWWLYKRALAATTIKIKRRA [K21A-Turingcin-46]” it was “reduced cytotoxicity”.

System in a further data set: not listed separately
Briefly: Solubility in autoclaved deionized water.
Details: not given
The data set is classed as physicochemical.
For the molecule KILIRKILTIIERKLLRSNLKS [Turingcin-12], the “Solubility in autoclaved deionized water” value was “Soluble”.
Same read-out and setting: in the case of “FRWWLYKRALAATAIKIKRRK [T14A-Turingcin-46]” it was “Soluble”; in that of KIWKIKILRINKKTSSIIA [Turingcin-14], “Soluble”.
On the same count and under the same terms, then RRLNSKINLYLRIIIALINK [Turingcin-20], with “Soluble”; and LIWRRKIFRIKLRI [Turingcin-17], with “Soluble”.
The same measure, in the same setting: then RYIRLLVILKLA [Turingcin-10], with “Soluble”.
Turning to “ARWWLYKRALAATTIKIKRRK [F1A-Turingcin-46]”, the “Solubility in autoclaved deionized water” value is recorded as “Soluble”.
In the case of ILARLSSILKLI [Turingcin-4], the “Solubility in autoclaved deionized water” value was “Insoluble”.
The same measure, in the same setting: in the case of “FRWWLYKRALAATTIAIKRRK [K16A-Turingcin-46]” it was “Soluble”; in that of “FRWWLYKRALAATTIKAKRRK [I17A-Turingcin-46]”, “Soluble”; in that of KILWYRIILIRFQKVW [Turingcin-5], “Insoluble”.
Still for that read-out and setting: then WAVKSSRIIYTLLRKLKTWFNIKAK [Turingcin-8], with “Soluble”; and “FRWWLYKRAAAATTIKIKRRK [L10A-Turingcin-46]”, with “Soluble”.
Same read-out and setting: in the case of “FRAWLYKRALAATTIKIKRRK [W3A-Turingcin-46]” it was “Soluble”.
RLIKAILNRVWKAWAIQKK [Turingcin-2]: the “Solubility in autoclaved deionized water” value is reported as “Soluble”.
Still for that read-out and setting: in the case of KRIKILRKYKWNQQYKKKL [Turingcin-16] it was “Soluble”; in that of WYLIRVALIAFKKA [Turingcin-21], “Insoluble”.
Same read-out and setting: then “FRWWLYARALAATTIKIKRRK [K7A-Turingcin-46]”, with “Soluble”.
Consider “FRWWLAKRALAATTIKIKRRK [Y6A-Turingcin-46]”, for which the “Solubility in autoclaved deionized water” value was “Soluble”.
As to RILRKWSNWWWNNWLIWK [Turingcin-28], the “Solubility in autoclaved deionized water” value was “Soluble”.
Same read-out and setting: then KQIKQRSIRIKIFKKIL [Turingcin-24], with “Soluble”; and “FRWWLYKAALAATTIKIKRRK [R8A-Turingcin-46]”, with “Soluble”; and “RIINIILNRNLKKIILAAAIRNAIRW [Turingcin-22]”, with “Soluble”.
Same read-out and setting: in the case of KLRSSKKIFQIAAKFNKLFRRK [Turingcin-26] it was “Soluble”.
Still for that read-out and setting: then “SRKYRQLAKYIWRNLANKNRLIIKA [Turingcin-15]”, with “Soluble”.
For the molecule RILRKVWTAWLREAALTIKVKR [Turingcin-9], the “Solubility in autoclaved deionized water” value is “Soluble”.
The same measure, in the same setting: then “FAWWLYKRALAATTIKIKRRK [R2A-Turingcin-46]”, with “Soluble”; and “FRWWAYKRALAATTIKIKRRK [L5A-Turingcin-46]”, with “Soluble”; and RVWKTLRIKVYFARRKQR [Turingcin-25], with “Soluble”.
On to “FRWWLYKRALAATTAKIKRRK [I15A-Turingcin-46]”, for which the “Solubility in autoclaved deionized water” value is recorded as “Soluble”.
The same measure, in the same setting: in the case of RRWVHKILLIIIKILA [Turingcin-1] it was “Soluble”; in that of “FRWALYKRALAATTIKIKRRK [W4A-Turingcin-46]”, “Soluble”.
Take “FRWWLYKRALAATTIKIARRK [K18A-Turingcin-46]”: the “Solubility in autoclaved deionized water” value is on record as “Soluble”.
For “FRWWLYKRALAAATIKIKRRK [T13A-Turingcin-46]”, the “Solubility in autoclaved deionized water” value is on record as “Soluble”.
RWWYTSIIKKKLNKIIA [Turingcin-11]: the “Solubility in autoclaved deionized water” value is “Soluble”.
Still for that read-out and setting: then KKVWYIKVKLALALIKNI [Turingcin-3], with “Soluble”.
On the same count and under the same terms, then KMWKLRIKLTI [Turingcin-13], with “Soluble”; and “FRWWLYKRALAATTIKIKARK [R19A-Turingcin-46]”, with “Soluble”; and RLKSILLLIVTKINIRLKIA [Turingcin-7], with “Soluble”.
The same measure, in the same setting: then KKRVYRQKIRLIKKAIFFKKR [Turingcin-18], with “Soluble”; and FRWWLYKRALAATTIKIKRRK [Turingcin-46], with “Soluble”.
As for KKIIIKFLIFNTKL [Turingcin-19], the “Solubility in autoclaved deionized water” value is reported as “Soluble”.
On the same count and under the same terms, then “KRRAARIKQLRFIQQSLREERIIQKLIK [Turingcin-6]”, with “Soluble”; and VMRRFFRLLRKIKL [Turingcin-23], with “Soluble”.
On the same count and under the same terms, in the case of “FRWWLYKRALAATTIKIKRAK [R20A-Turingcin-46]” it was “Soluble”.
On the same count and under the same terms, in the case of “FRWWLYKRALAATTIKIKRRA [K21A-Turingcin-46]” it was “Soluble”.
Take QRRVLRFKLNTKIARLINLNI [Turingcin-27]: the “Solubility in autoclaved deionized water” value is listed as “Soluble”.

System in a further data set: not listed separately
Briefly: Resistance to proteolytic degradation in human serum. The data set is classed as in vitro ADME. Particulars: 25% human serum in water.
The term amount remaining denotes the share of the starting amount still present when the sample was taken. A high value points to less turnover. Molecule FRWWLYKRALAATTIKIKRRK [Turingcin-46] yielded a fraction remaining at 1 h, 7 mg mL-1 of roughly 50%.

Another data set concerns S. aureus ATCC 12600. Briefly: Skin abscess infection mouse model. The data set is classed as in vivo, CD-1 mice. The following applies: general indicator of potential toxicity.
FRWWLYKRALAATTIKIKRRK [Turingcin-46]: the “Body weight change, skin abscess model” value is “no significant changes in body weight”.

The next data set deals with S. aureus ATCC 12600. Briefly: Peritonitis/sepsis mouse model. The data set is classed as in vivo, CD-1 mice. Particulars: at the tested dose.
As to FRWWLYKRALAATTIKIKRRK [Turingcin-46], the “Body weight change, peritonitis/sepsis model” value was “no significant changes in body weight”.

Still in this data set, the particulars now being: peritoneal lavage, log10 CFU, n = 9 per group.
Turning to `CNC(C)C1CCC(N)C(OC2C(N)CC(N)C(OC3OCC(C)(O)C(NC)C3O)C2O)O1` (stereo not shown) [gentamicin, reference compound], the “Slope of intracellular versus extracellular bacterial loads (linear regression)” value turned out to be 1.37.
